# Assay results from PMC5418711, “Safety and efficacy of the choline analogue SAR97276 for malaria treatment: results of two phase 2, open-label, multicenter trials in African patients” (Malaria Journal, 2017).
# Key:
# [1] = test system: P. falciparum laboratory and clinical isolates; design: method as in PMID 11847346, PMID 15492221; details: cited from earlier work
# [2] = ref unpublished data owned by Sanofi, cited from earlier work
# P. falciparum = assay: Study 1: phase 2 trial, efficacy of SAR97276A in uncomplicated falciparum malaria patients; type: in vivo, Plasmodium falciparum; details: for Median time to 50% parasite reduction (95% CI) / Median time to 90% parasite reduction (95% CI): Kaplan–Meier; for Recurrences up to day 28: patients judged successfully treated after 72 h
# Description: The study was designed to enroll up to 210 malaria patients in sequential cohorts. A staggered trial design was planned to assess a single, IM dose of SAR97276A (0.18 mg/kg, or 12.5 mg fixed dose) first in adults and then progressively in children (age 7–17 years) and young children (age 0.5–7 years). Age de-escalation of the study was only allowed if threshold response rate in the respective study cohort was met (26 patients out of 30 patients need to have met the 4 criteria of the primary endpoint at 72 h plus adequate safety results). If efficacy criteria were not met but safety was acceptable, SAR97276A would be tested as a 3-day IM regimen (3 injections, 24 h apart) in an additionally recruited 30 patients of the respective cohort. Subsequently, in case of acceptable safety and efficacy, all following cohorts were treated with the 3-day IM regimen. In parallel, SAR97276A was planned to be tested as a single, IV dose (0.14 mg/kg or 10 mg fixed dose) first in adults and then in young children with severe malaria, if threshold response rate was met. An overview of this adaptive study design can be seen in Fig. 1 and Table 1.
# The following age cohorts were planned to be enrolled: (i) Adults aged 18–65 years, body weight ≥50 kg, and uncomplicated malaria with P. falciparum ≥100 parasites/µL; (ii) children aged 7–17 years, and uncomplicated malaria with P. falciparum ≥1000 parasites/µL, and (iii) young children aged of 0.5–7 years with uncomplicated malaria (P. falciparum count ≥1000 parasites/µL) and as an additional group with symptoms or signs of severe malaria according to WHO [9]. Adults received SAR97276A either by IM (study group 1A and 1B) or by IV route (study group 1C). Children received SAR97276A only by IM injection (study group 1D). Young children (0.5–7 years) both with uncomplicated and with severe malaria were not included as Study 1 was stopped before reaching these cohorts due to lack of efficacy.
# Study duration and follow-up In both studies, study duration was 28 days for each patient including a screening period of up to 12 h before inclusion into the study. Participants were hospitalized for at least 3 days (72 h) after the start of treatment. Follow-up visits were done on day 6, 8, 14 ± 2, 21 ± 2, 28 ± 2 (Study 1); and day 7, 14 ± 2, 21 ± 2, 28 ± 2 (Study 2). Patient examination Fever measurements and thick blood smears were done every 6 h until 72 h and at each follow-up visit. Parasitemia was determined microscopically by Giemsa stained thick blood smear by two trained microscopists blinded to each other. Safety assessment Safety analysis was based on AEs including vision assessment recorded from baseline until day 28 (in binocular conditions, for near and distant visual acuity, using standard optotypes appropriate for patient’s age and reading ability. Tests with standard corrective glasses (+3 and −3 diopters) were performed in case of visual adverse events, to assess whether vision improved or worsened with corrective glasses). Laboratory tests including hematology, biochemistry and urine analysis were done at baseline, day 2, 4, 28 (Study 1), or baseline, day 2, 4, 14, 28 (Study 2); vital signs were recorded at baseline, every 6 h until 72 h and on each follow up visit. An electrocardiogram (ECG) was done at baseline, day 4, 28 (Study 1), or baseline, 48 h, 72 h, day 28 (Study 2). For Study 2 respiratory parameters (respiratory rate, peak flow, efficiency of cough) were also checked at baseline and 30 min after first dose on day 1, 2 and 3.
# Definition of fever clearance Fever was defined as temperature ≥38 °C.
# Definition of general condition improvement The symptoms were scored at baseline and every 6 h up to day 4 (72 h), including headache, fatigue, nausea-vomiting and abdominal pain. The symptoms were scored according to the following scale: absent -0-, mild -1-, moderate -2- and severe -3-. The total clinical score ranged between 0 and 12. […]
# malaria monkey model = test system: malaria monkey model; design: method as in PMID 11847346, PMID 15492221, PMID 12878525; details: cited from earlier work
# [3] = after single IM administration of 36 mg, phase 1
# [4] = Group 1A: 1 day IM 0.18 mg/kg, adults, N=34
# [5] = Group 1A: 1 day IM 0.18 mg/kg, adults, PCR data available 12/14
# [6] = Group 1B: 3 days IM 0.18 mg/kg, adults, N=30
# [7] = Group 1B: 3 days IM 0.18 mg/kg, adults, PCR data available 11/13
# [8] = Group 1C: 1 day IV 0.14 mg/kg, adults, N=30
# [9] = Group 1C: 1 day IV 0.14 mg/kg, adults, PCR data available 10/15
# [10] = Group 1D: 3 days IM 0.18 mg/kg, children
# [11] = Group 1D: 3 days IM 0.18 mg/kg, children, N=19
# [12] = Group 1D: 3 days IM 0.18 mg/kg, children, PCR data available 8/8
compound,measurement,setting,value
Cc1c(CCO)sc[n+]1CCCCCCCCCCCC[n+]1csc(CCO)c1C [SAR97276A],In vitro-activity against P. falciparum laboratory and clinical isolates,[1],powerful in vitro-activity
same,Terminal half-life in plasma,[2]; [3],5.5 h
same,Terminal half-life in whole blood,[2]; [3],73 h
same,"Participants with an AE of severe intensity (ophthalmologic problems, temporary decrease in visual acuity), considered drug related","[2]; multiple administrations of 18 mg twice daily IM, phase 1",one
same,Participants with AEs of severe intensity (severe abdominal spasm),"[2]; multiple doses of 12.8 mg IV, phase 1",two
same,Highest tolerated dose for twice daily IM administration for 3 days,[2]; phase 1,18 mg
same,Tolerability in three phase 1 clinical trials,"[2]; single doses 0.2–12.8 mg IV, 3.2–36 mg IM",well tolerated
same,General condition improvement at 48 h: Failure,P. falciparum; [4],2 (6%)
same,General condition improvement at 48 h: Success,P. falciparum; [4],32 (94%)
same,Parasite reduction (at least 90% at 72 h): Failure,P. falciparum; [4],11 (32%)
same,Parasite reduction (at least 90% at 72 h): Success,P. falciparum; [4],23 (68%)
same,Rescue therapy criterion (no need for rescue therapy): Failure,P. falciparum; [4],5 (15%)
same,Rescue therapy criterion (no need for rescue therapy): Success,P. falciparum; [4],29 (85%)
same,Median time to 50% parasite reduction (95% CI),P. falciparum; [4],18.0 (12.0–24.0) h
same,Median time to 90% parasite reduction (95% CI),P. falciparum; [4],30.0 (18.0–30.0) h
same,New infection (PCR genotyped recurrences up to day 28),P. falciparum; [5],9 (75%)
same,Recrudescences (PCR genotyped recurrences up to day 28),P. falciparum; [5],3 (25%)
same,Recurrences up to day 28,"P. falciparum; Group 1A: 1 day IM 0.18 mg/kg, adults",14
same,General condition improvement at 48 h: Failure,P. falciparum; [6],2 (7%)
same,General condition improvement at 48 h: Success,P. falciparum; [6],28 (93%)
same,Parasite reduction (at least 90% at 72 h): Failure,P. falciparum; [6],2 (7%)
same,Parasite reduction (at least 90% at 72 h): Success,P. falciparum; [6],28 (93%)
same,Rescue therapy criterion (no need for rescue therapy): Failure,P. falciparum; [6],1 (3%)
same,Rescue therapy criterion (no need for rescue therapy): Success,P. falciparum; [6],29 (97%)
same,Median time to 50% parasite reduction (95% CI),P. falciparum; [6],18.0 (6.0–24.0) h
same,Median time to 90% parasite reduction (95% CI),P. falciparum; [6],24.0 (12.0–36.0) h
same,New infection (PCR genotyped recurrences up to day 28),P. falciparum; [7],6 (54.5%)
same,Recrudescences (PCR genotyped recurrences up to day 28),P. falciparum; [7],5 (45.5%)
same,Recurrences up to day 28,"P. falciparum; Group 1B: 3 days IM 0.18 mg/kg, adults",13
same,General condition improvement at 48 h: Failure,P. falciparum; [8],1 (3%)
same,General condition improvement at 48 h: Success,P. falciparum; [8],29 (97%)
same,Parasite reduction (at least 90% at 72 h): Failure,P. falciparum; [8],7 (23%)
same,Parasite reduction (at least 90% at 72 h): Success,P. falciparum; [8],23 (77%)
same,Rescue therapy criterion (no need for rescue therapy): Failure,P. falciparum; [8],1 (3%)
same,Rescue therapy criterion (no need for rescue therapy): Success,P. falciparum; [8],29 (97%)
same,Median time to 50% parasite reduction (95% CI),P. falciparum; [8],9.0 (6.0–18.0) h
same,Median time to 90% parasite reduction (95% CI),P. falciparum; [8],30.0 (18.0–30.0) h
same,New infection (PCR genotyped recurrences up to day 28),P. falciparum; [9],6 (60%)
same,Recrudescences (PCR genotyped recurrences up to day 28),P. falciparum; [9],4 (40%)
same,Recurrences up to day 28,"P. falciparum; Group 1C: 1 day IV 0.14 mg/kg, adults",15
same,Recrudescence of the same parasite until day 14 in successfully cured children (assessed after 72 h),P. falciparum; [10],3/13
same,Enrolled patients failed to meet the predetermined efficacy response criteria,"P. falciparum; Group 1D: 3 days IM 0.18 mg/kg, children's cohort",5/19
same,General condition improvement at 48 h: Failure,P. falciparum; [11],1 (5%)
same,General condition improvement at 48 h: Not evaluable,P. falciparum; [11],1 (5%)
same,General condition improvement at 48 h: Success,P. falciparum; [11],17 (90%)
same,Parasite reduction (at least 90% at 72 h): Failure,P. falciparum; [11],5 (26%)
same,Parasite reduction (at least 90% at 72 h): Not evaluable,P. falciparum; [11],0
same,Parasite reduction (at least 90% at 72 h): Success,P. falciparum; [11],14 (74%)
same,Rescue therapy criterion (no need for rescue therapy): Failure,P. falciparum; [11],4 (21%)
same,Rescue therapy criterion (no need for rescue therapy): Not evaluable,P. falciparum; [11],0
same,Rescue therapy criterion (no need for rescue therapy): Success,P. falciparum; [11],15 (79%)
same,Median time to 50% parasite reduction (95% CI),P. falciparum; [11],24.0 (12.0–24.0) h
same,Median time to 90% parasite reduction (95% CI),P. falciparum; [11],24.0 (24.0–30.0) h
same,New infection (PCR genotyped recurrences up to day 28),P. falciparum; [12],0
same,Recrudescences (PCR genotyped recurrences up to day 28),P. falciparum; [12],8 (100%)
same,Recurrences up to day 28,P. falciparum; [10],8
same,"Recurrences in the successfully treated patients until day 28, total","P. falciparum; Study 1, all groups",50
same,"New infections among genotyped recurrences, total","P. falciparum; Study 1, all groups, 41 recurrences genotyped by PCR",21
same,Efficacy in malaria monkey model,malaria monkey model,highly efficacious
